In patent publication US11312726B2, “Thienodiazepine derivatives and application thereof” (priority 2017, dated 2022):

Experiments:
[1] = test system: Human prostatic cancer PC-3 cell subcutaneous xenograft tumor; experiment: In vivo pharmacodynamics, PC-3 subcutaneous xenograft tumor model; details: 50 mg/kg PO BID × 21 days
Experimental: In Vivo Pharmacodynamics Study of Compound 32 on Human Prostatic Cancer PC-3 Cell Subcutaneous Xenograft Tumor Model
The formulation method of the test substance was the same as in Table 2, and the animal grouping and the dosage regimen were the same as in Table 3.
Strain: BALB/c nude mouse
Week-age and weight: 6-8 weeks of age, 18-22 grams of body weight
Supplier: Shanghai Sippr-BK laboratory animal Co. Ltd.
(§1) 3. Experiment Methods and Steps
Human prostatic cancer PC-3 cells were cultured in monolayer in vitro, and the culture conditions were F-12K culture medium (supplier: Gibco; article number: 21127-022; manufacturing batch number: 1868870) with 10% fetal bovine serum, 100 U/mL penicillin and 100 μg/mL streptomycin. The culture was performed at 37° C. in 5% CO2. Conventional digestion treatment with pancreatin-EDTA for passage was carried out twice a week. When the cells were in the exponential growth phase, the cells were harvested, counted, and inoculated.
(§2) 3.2 Tumor Cell Inoculation
0.1 mL of 10×10^6 PC-3 cells were subcutaneously inoculated into the right-back of each nude mouse. The grouping and administration was started when the average tumor volume reached 100-150 mm^3.
3.3 Tumor Measurement, Experiment Indices, and Statistical Analysis were the Same as MDA-MB-231 Model

BRD4-BD1 = BRD4-BD1 (Homo sapiens (Human), UniProt O60885); experiment: BRD4 biochemical activity test (TR-FRET), BD1; details: read-out: BRD4 Binding (BD1), IC50
Description: BRD4 Biochemical Activity Test
1) BRD4-BD1 and BRD4-BD2 proteins of BPS Company, polypeptide of ANASPEC Company, and test reagent of PerkinElmer Company were used in the experiments;
2) The TR-FRET experimental principle was used in the experiment to screen compounds.
3) Relevant control compounds
1) Preparation of the Compound Plate:
Preparation of the compound plate in the experiment was achieved by Echo:
2) Preparation of Reaction Reagents:
Relevant reaction reagents should be prepared on the day of the experiment:
a) Formulation of 1× assay buffer;
b) Formulation of 3× component solution for the experiment: […]
1. The reagent was taken out and placed on ice to naturally melt for later use;
2. “Solution A” (protein solution), “solution B” (polypeptide solution), and “solution C” (test reagent solution) used in the experiment were formulated with the 1× assay buffer, and during the formation of the 3× solution from the components used in the experiment reaction system, the amounts of solutions A, B and C must be enough for the required amounts in the experiment.
3) Experimental Operation Steps:
The experiment plate was a plate that contained a gradient concentration of the compound and a corresponding DMSO solution and was prepared with ECHO before the experiment:
a) The experiment plate was taken out, and 5 μL/well of “solution A” (protein solution) was added to columns 2-23 of the experiment plate, then 5 μL/well of 1× assay buffer was added to columns 1 and 24 of the experiment plate, and columns 1 and 24 were used as Min control in the experiment system;
b) Centrifugation at 1000 rpm was carried out for 30 seconds;
c) The plate was incubated at 23° C. for 20 minutes;
d) After 20 minutes of incubation, 5 μL/well of “solution B” (polypeptide solution) was added to columns 1-24 of the experiment plate;
e) Centrifugation at 1000 rpm was carried out for 30 seconds;
f) The plate was incubated at 23° C. for 20 minutes;
g) After 20 minutes of incubation, 5 μL/well of “solution C” (test reagent solution) was added to columns 1-24 of the experiment plate;
h) Centrifugation at 1000 rpm was carried out for 30 seconds;
i) The plate was incubated at 23° C. for 40 minutes;
j) The experiment plate was placed on EnVision to read the plate.
a) The corresponding Max control and Min control of each experiment plate were used to convert to the Z′ value of the experiment plate, and the Z′ value of each plate was ensured to be >0.5;
b) The IC50 value was calculated from the signal of the control compound by XLFIT5, and ensured to be maintained within 3 times of the average value of historical data.

[2] = test system: MC38 mouse colon cancer cell transplantation tumor; experiment: In vivo anti-tumor effect, MC38 mouse colon cancer transplantation tumor model; details: for relative tumor proliferation rate T/C / tumor growth inhibition rate TGI: 20th day after administration
Experimental: In Vivo Anti-Tumor Effect of Compound 32 in MC38 Mouse Colon Cancer Cell Animal Transplantation Tumor Model
Week-age and weight: 6-7 weeks of age, 16-20 grams of body weight
Supplier: Shanghai SLAC Laboratory Animal Co., Ltd.
as §1
Mouse colon cancer MC38 cells (OBiO Technology (Shanghai) Corp., Ltd.) were cultured in monolayer in vitro, and the culture conditions were DMEM culture medium (Gibco; article number: 12100) with 10% fetal bovine serum. The culture was performed at 37° C. in 5% CO2 in an incubator. Conventional digestion treatment with 0.25% pancreatin-EDTA for passage was carried out. When the cells were in the exponential growth phase and the saturation was 80%-90%, the cells were harvested, counted, and inoculated.
as §2
0.1 mL of 2×10^5 MC38 cells were subcutaneously inoculated into the right-back of each mouse. The random grouping and administration was carried out according to the tumor volume when the average tumor volume reached about 70 mm^3.
Tumor diameter was measured twice a week with vernier calipers. The equation for calculating tumor volume was V=0.5×a×b^2, wherein a and b represented the major and minor diameters of the tumor, respectively.
The tumor inhibition effect of the compound was evaluated by TGI (%) or relative tumor proliferation rate T/C (%). Relative tumor proliferation rate T/C (%)=TRTV/CRTV×100% (TRTV: RTV of the treatment group; CRTV: RTV of the negative control group). The relative tumor volume (RTV) was calculated according to the results of the tumor measurement. The calculation equation was RTV=Vt/V0, where V0 was the average tumor volume measured at the grouping and administration (i.e. D0), and Vt was the average tumor volume at the time of a certain measurement. TRTV and CRTV were obtained from the data on the same day.
TGI (%) reflected the tumor growth inhibition rate.
At the end of the experiment, the tumor weight would be measured and the Tweight/Cweight percentage would be calculated. Tweight and Cweight represented the tumor weights of the administration group and the medium control group, respectively.
Statistical analysis was performed using SPSS software based on the tumor volume and the tumor weight at the end of the experiment. The comparison between two groups was analyzed by t-test, and the comparison between three or more groups was analyzed by one-way ANOVA.

[3] = each administration group (15, 25, 50 mg/kg)

## Cc1sc2c(c1C)C(c1ccc(Cl)cc1)=N[C@@H](CC(=O)Nc1ccc3c(c1)COC3=O)c1nnc(C)n1-2 [Compound 32]
[1]
  tolerance of the animals: well tolerated
[1]; 21st day
  tumor inhibition effect compared with solvent control: significant tumor inhibition effect
[1]; 21st day after administration
  relative tumor proliferation rate T/C: 44.63%
  tumor growth inhibition rate TGI: 58.4%
BRD4-BD1
  IC50: 0.066 µM
[2]; 15 mg/kg p.o. BID × 20 days
  relative tumor proliferation rate T/C: 33.68%
  tumor growth inhibition rate TGI: 68.81%
[2]; 25 mg/kg p.o. BID × 20 days
  relative tumor proliferation rate T/C: 27.59%
  tumor growth inhibition rate TGI: 75.21%
[2]; 50 mg/kg p.o. BID × 20 days
  relative tumor proliferation rate T/C: 10.04%
  tumor growth inhibition rate TGI: 93.46%
[2]; [3]
  tolerance of the animals: good tolerance
  tumor inhibition effect (in words): Significant tumor inhibition effects
